According to patent publication US7795305B2, “CDDO-compounds and combination therapies thereof” (Board of Regents, The University of Texas System, priority 2000, dated 2010):

How the values were obtained:
NB4 = assay: Growth inhibition of leukemic cell line; type: cell-based, human
From the text: (§1) Suspension culture of leukemic cells.

KG-1 = assay: Growth inhibition of leukemic cell line; type: cell-based, human
From the text: as §1

HL-60 cells [1] = assay: CDDO-Me plus LG-100268 in HL-60 cells (Table 6); type: cell-based, human; set-up: unit not given here; conditions: 24 hrs; CDDO-Me 0.1 μM, no ligand
Protocol: Finally, the inventors examined if CDDO-Me combined with ATRA would enhance differentiation. HL-60 cells were cultured with of 0.1 μM of CDDO-Me for 72 hrs, alone or in combination with 1 μM ATRA. […] At 48 hrs, 67.4% in CDDO-Me-treated cells and 63.5% in ATRA-treated cells were CD11b+ (compared with 40% in DMSO controls), while 85% of cells were positive when both compounds were given simultaneously. These studies were repeated 3 times and yielded essentially identical results. Next, combined treatment with CDDO-Me and RXR-specific ligand were tested for potentiation of anti-leukemic effects. RXR-specific ligand LG-100268 (Ligand Pharmaceuticals) used at 10, 100 nm and 1 μM enhanced killing of HL-60 cells in a dose-dependent manner (Table 6).

HL-60 cells [2] = assay: Annexin V staining; type: cell-based, human; conditions: 0.1 μM CDDO-Me alone or combined with 1 μM ATRA
Protocol: (§2) Annexin V staining. Cells were washed in phosphate-buffered saline (PBS) and resuspended in 100 μl of binding buffer containing Annexin V (Roche Diagnostic Corporation, Indianapolis, Ind.). Cells were analyzed by flow cytometry after the addition of propidium iodide (PI). Annexin V binds to those cells that express phosphatidylserine on the outer layer of the cell membrane, and PI stains the cellular DNA of those cells with a compromised cell membrane. This allows for live cells (unstained with either fluorochrome) to be discriminated from apoptotic cells (stained only with annexin V) and necrotic cells (stained with both annexin and PI).
CDDO-Me. CDDO-Me and retinoids synergistically decrease viability and induce differentiation in leukemic cell lines. The inventors tested the Effect of CDDO-Me/ATRA combinations in different leukemic cell lines. […] This was confirmed in HL-60 cells by annexin V staining (17.9 vs 30% positive cells when 0.1 μM of CDDO-Me was combined with 1 μM ATRA). In primary AML, ATRA enhanced CDDO-Me-induced apoptosis in 3/8 samples tested (an example of subG1 flow cytometry in AML sample shown in FIG. 32).

U937/wt = assay: Viability of Bcl-2 transfectants; type: cell-based, human; conditions: 0.1 μM
From the text: Cell lines. HL-60, KG-1, U937, and Jurkat cell lines were obtained from the American Type Culture Collection (Rockville, Md.). NB4 cells were kindly provided by Dr. M. Lanotte. HL-60-doxorubicin-resistant cells (HL-60-DOX) were also used. U937/Bcl-2 and its appropriate vector controls (U937/pCEP) were provided by Dr. S. Grant. U937 cells were transfected with WT, S70A, or S70E cDNA containing cytomegalovirus plasmids by electroporation (200 V, 975 μF capacitance) and selected and maintained in the medium plus 500 μg/mL G418 (Gibco BRL, Gaithersburg, Md.)
The effect of CDDO-Me on Bcl-2 phosphorylation was further investigated by performing metabolic labeling studies with ^32P-orthophosphoric acid. […] To further investigate mechanisms of inhibition of Bcl-2 phosphorylation that could may a role in CDDO-Me-induced cell death, the inventors selected U937 cells that were stably transfected with a serine 70→alanine, Bcl-2 mutant (S70A).

435 breast cancer cells = assay: Breast cancer growth in nude mice; type: in vivo; conditions: 20 and 40 mg/kg i.v. twice a week
Protocol: CDDO was given at 20 and 40 mg/kg i.v. twice a week 10 days after nude mice were injected s.c. with 2×10^6 estrogen-receptor negative, PPARγ positive 435 breast cancer cells.

NB4 cells = assay: Annexin V staining; type: cell-based, human
Protocol: as §2
Mechanisms of CDDO-induced apoptosis in leukemia cell lines and in primary AML samples were also determined. The involvement of the death receptor/Fas pathway was studied in NB4 cells. Treatment with 0.5 μM CDDO induced cell surface Fas/CD95 expression at 48 hours (MFI 34.8 vs 24.8 in DMSO-treated cells and 26 in untreated control). At this concentration, 22.3% of cells were annexin V positive compared with 11.4% in DMSO-controls. At 1 μM, 56.3% of cells were apoptotic. Similarly, 1 μM CDDO induced Fas expression in 7/12 AML CD34+ cells (MFI, 22.3±3.5 in DMSO-controls, 40±4.3 in CDDO-treated CD34+ cells, p<0.01).

HL-60 cells [3] = assay: Apoptotic sub-G1 cells / apoptosis; type: cell-based, human
Protocol: (§3) Cell kinetic and DNA fragmentation studies. The cell cycle kinetics was determined by staining cells with acridine orange for cellular DNA and RNA content followed by flow cytometeric analysis as described. Samples were measured in a FACScan flow cytometer (Becton Dickinson, San Jose, Calif.) using the 488-nm line of a […] argon laser and filter settings for green (530 nm) (DNA) and red (585 nm) (RNA) fluorescence. Ten thousand events were stored in list mode for analysis. The percentage of cells in the “sub G1 peak” defined the proportion of apoptotic cells in the tested populations. […] Cell-cycle kinetics was analyzed using ModFit software (Verity Software House, Inc., Topsham, Me.).
Comparison of CDDO-compounds with other PPARγ ligands. […] In contrast, CDDO induced monocytic differentiation at 0.5 to 1.0 μM and apoptosis at 1 μM in HL-60 cells. […] These experiments will define the ability of CDDO to induce differentiation and apoptosis in comparison to other PPARγ ligands. Similar experiments are contemplated with CDDO-Me.

HL-60 cells [4] = assay: Differentiation by CD11b/CD14 flow cytometry; type: cell-based, human; conditions: 7 days, 0.5 μM
U937 cells = assay: Apoptotic sub-G1 cells; type: cell-based, human; conditions: 1 μM, 48 hrs
Protocol: as §3

Row | Structure (SMILES) | IC50 (NB4) [nM] | IC50 (KG-1) [nM] | Table 6 value: CDDO-Me-induced monocytic differentiation in HL-60 cells (HL-60 cells [1]) | annexin V positive cells (HL-60 cells [2]) [%] | viable cells (U937/wt) [%] | growth of breast cancer cells in vivo (435 breast cancer cells) | annexin V positive cells (NB4 cells; 0.5 μM (11.4% in DMSO-controls)) [%] | apoptotic cells (NB4 cells; 1 μM) [%] | apoptotic sub-G1 cells (HL-60 cells [3]; 1 μM, 48 hrs) [%] | concentration at which apoptosis was induced (HL-60 cells [3]; HL-60 cells) [µM] | CD11b % (HL-60 cells [4]) [%] | apoptotic sub-G1 cells (U937 cells) [%]
1 | COC(=O)[C@]12CCC(C)(C)C[C@H]1[C@H]1C(=O)C=C3[C@@]4(C)C=C(C#N)C(=O)C(C)(C)[C@@H]4CC[C@@]3(C)[C@]1(C)CC2 [CDDO-Me] | 270 | 400 | 22.4 | 17.9 | 30 | – | – | – | – | – | – | –
2 | CC1(C)CCC2(C(=O)O)CCC3(C)C(C(=O)C=C4C5(C)C=C(C#N)C(=O)C(C)(C)C5CCC43C)C2C1 (stereo not drawn) [CDDO, 2-cyano-3,12-dioxoolen-1,9-dien-28-oic acid] | – | – | – | – | – | inhibits the growth of breast cancer cells in vivo | 22.3 | 56.3 | 34.8 | 1 | 83.1 | 69.4
